For series [1], the system named is SARS-CoV-2 in Vero-E6 cells. The series can be described thus: microbe, parasite or virus in culture. The series is classed as cell-based. As to conditions: Severe acute respiratory syndrome coronavirus 2, Vero C1008; for EC50: approximate, estimated from PCmax and PCmin, read-out: EC50 approx.
The subject of series [2] is SARS-CoV-2. Put plainly: Intracellular viral antigen (N protein) accumulation by immunofluorescence, A549-ACE2 cells. The series is classed as cell-based. Conditions: Severe acute respiratory syndrome coronavirus 2, A549-ACE2, MOI 0.005, 48 h, N protein signal; for EC50: read-out: EC50; for EC90: read-out: EC90.
Series [3] deals with SARS-CoV-2. The series can be described thus: Intracellular viral antigen (N protein) accumulation by immunofluorescence, Vero-E6 cells. The series is classed as cell-based. Conditions: Severe acute respiratory syndrome coronavirus 2, Vero C1008, Vero-E6, MOI 0.01, 24 h, N protein signal; for EC50: read-out: EC50; for EC90: read-out: EC90.
Series [4] in a line: Cytotoxicity by MTT colorimetric assay, Vero-E6. The series is classed as cell-based. Conditions: African green monkey, uninfected Vero-E6 cells. On the technique in general: Tetrazolium assays rely on reduction of a dye to a coloured formazan, in cell work by metabolically active cells.
In series [5] the test system is vesicular stomatitis virus (VSV-GFP). The series can be described thus: microbe, parasite or virus in culture. The series is classed as cell-based. As to conditions: A549-ACE2, 16 h.
Series [6] has as its system West Nile virus (WNV-GFP). Put plainly: microbe, parasite or virus in culture. Conditions: Huh-7, 48 h. The series is classed as cell-based.
Series [7] can be described thus: in vitro. As to conditions: human.
The nature of series [8]: in vitro. As to conditions: African green monkey.
Series [9] in a line: in vitro. Conditions: human. This is another data set of the same source.
Experimental: To evaluate the cytotoxicity profile of the selected compounds MTT assays were performed in Vero-E6 and A549-ACE2 cells. Uninfected cells were incubated with a range of compound concentrations (from 50 to 0.78 µM) for forty-eight hours, time at which the MTT substrate [3-(4,5-dimethylthiazol-2-yl)-2,5-diphenyltetrazolium bromide] was added and the formation of formazan precipitates was evaluated two hours later, using a colorimetric readout. Vehicle-treated (DMSO) cells were used as reference (100 %).
The nature of series [10]: in vitro. Conditions: human. The source holds these as a separate data set.
Experimental: (§1) To study the antiviral effect of selected compounds of the family against a distinct human coronavirus, Huh-7 cell monolayers were infected with a GFP-expressing recombinant HCoV 229E (229E-GFP) at MOI 0.01 in the presence of a wide range of compound concentrations (0.4 to 50 µM). Forty-eight hours later cells were fixed by 10 minutes incubation with a 4 % formaldehyde-PBS solution. After extensive washes with PBS, infection efficiency was evaluated by the detection of GFP accumulation by fluorescence microscopy. Nuclei were stained using DAPI (4',6-diamidino-2-phenylindole) dye. Automated imaging was carried out in a SparkCyto (Tecan) multimode plate reader. The total intensity signal present in vehicle-treated (DMSO) conditions was used as reference (100 %).
Series [11] is described as follows: in vitro. As to conditions: human. The source holds these as a separate data set.
Experimental: Cytotoxicity profile of the selected compounds was evaluated by MTT assays in parallel wells of Huh-7 cells. Uninfected cells were incubated with a range of compound concentrations (from 50 to 0.78 µM) for forty-eight hours, time at which the MTT substrate [3-(4,5-dimethylthiazol-2-yl)-2,5-diphenyltetrazolium bromide] was added and the formation of formazan precipitates was evaluated two hours later, using a colorimetric readout. Vehicle-treated (DMSO) cells were used as reference (100 %).
A short description of series [12]: in vitro. Conditions: human. This is another data set of the same source.
The next series has as its system HCoV 229E (229E-GFP). The series can be described thus: organism not typed. Conditions: Huh-7, 48 h.
Setting [13] is: minimum nominal concentration protecting the Vero-E6 monolayer from virus-induced cell death, MOI 0.001, 72 h, read-out: PCmin.
Where [14] appears, read: real concentration, Vero-E6, MOI 0.001, 72 h, read-out: PC min real.

Read-outs that look alike come from different tables or passages of the source.

A word on the EC50: it is the midpoint of the concentration-response curve. One may read the EC90 as the point of the concentration-response curve where the effect stands at 90%.

Experimental for HCoV 229E (229E-GFP): as §1

Turning to `CCCCCCOC(=O)[C@H](CCC(=O)NCCC1CCN(Cc2ccccc2)CC1)NC(=O)c1coc(C)n1` [NF1331, n-Hexyl N^5-(2-(1-benzylpiperidin-4-yl)ethyl)-N^2-(2-methyloxazole-4-carbonyl)-L-glutaminate], the EC50 is 2.4 µM in [1] (Vero-E6, MOI 0.001, 72 h); 1.8 µM in the series with SARS-CoV-2 [2]; 1.5 µM in the series on SARS-CoV-2 [3]; 38 µM in series [5]; more than 50 µM in [6]; 2 µM in the series on HCoV 229E (229E-GFP). For the same compound, the minimal effective concentration in series [1] (setting [13]) came to 3.12 µM; in series [1] (setting [14]), 3.3 µM. Moreover, the EC90 is 5 µM in the series on SARS-CoV-2 [2]; 11 µM in the series with SARS-CoV-2 [3]; more than 50 µM in series [5]; more than 50 µM in series [6]; 20 µM with HCoV 229E (229E-GFP). Moreover, the CC50 at 48 h is more than 50 µM in [4]; more than 50 µM in “in vitro [9]”; 43 µM in “in vitro [10]”; more than 50 µM in the series “in vitro [11]”; more than 50 µM in the series “in vitro [12]”. Besides, the CC50 in “in vitro [7]”, in “in vitro [8]”, in “in vitro [9]” and in “in vitro [11]” was more than 50 µM throughout.

As for `CCOC(=O)[C@H](CCC(=O)NCCC1CCN(Cc2ccccc2)CC1)NC(=O)OCc1ccccc1` [NF1365, Ethyl N^2-((benzyloxy)carbonyl)-N^5-(2-(1-benzylpiperidin-4-yl)ethyl)-L-glutaminate], the EC50 is 2.4 µM in series [1] (Vero-E6, MOI 0.001, 72 h); 1 to 2 µM in the series on SARS-CoV-2 [2]; 1.8 µM with SARS-CoV-2 [3]; 36 µM in series [5]; 27 µM in [6]; 1 µM in the series on HCoV 229E (229E-GFP). Moreover, the minimal effective concentration in [1] (setting [13]) is 3.12 µM; in series [1] (setting [14]) it was 3.2 µM. In addition, the EC90 in the series on SARS-CoV-2 [2] was 2.5 to 5 µM; in the series on SARS-CoV-2 [3] it was 6 µM; in series [5], 47 µM; in series [6], 45 µM; in the series on HCoV 229E (229E-GFP), 8 µM. Also, in [4], the CC50 at 48 h is more than 50 µM. In “in vitro [8]”, this compound registered a CC50 of 50 µM.

Source of the values: EP4389121A1, “ANTIVIRAL AMINO ACID DERIVATIVES” (Consejo Superior De Investigaciones Científicas (CSIC), priority 2022, dated 2024).
